Reference: ChEMBL document CHEMBL1133792, “Synthesis, absolute configuration and antimuscarinic activity of the enantiomers of [1-(2,2-diphenyl-[1,3]dioxolan-4-yl)-ethyl]-dimethyl-amine” (Bioorg Med Chem Lett, 2001)

Experiments:
[1] = biological target: Muscarinic acetylcholine receptor M3 (Cavia porcellus) (UniProt Q8VH26); test: Affinity for Muscarinic acetylcholine receptor M3 of guinea pig ileum.; format: tissue-based
[2] = biological target: T1, Muscarinic acetylcholine receptor M2 (Homo sapiens) (UniProt P08172); test: Affinity for Muscarinic acetylcholine receptor M2 of guinea pig heart.; settings: Cavia porcellus; target entry is the homologue from another species
T1 sequence (whole entry): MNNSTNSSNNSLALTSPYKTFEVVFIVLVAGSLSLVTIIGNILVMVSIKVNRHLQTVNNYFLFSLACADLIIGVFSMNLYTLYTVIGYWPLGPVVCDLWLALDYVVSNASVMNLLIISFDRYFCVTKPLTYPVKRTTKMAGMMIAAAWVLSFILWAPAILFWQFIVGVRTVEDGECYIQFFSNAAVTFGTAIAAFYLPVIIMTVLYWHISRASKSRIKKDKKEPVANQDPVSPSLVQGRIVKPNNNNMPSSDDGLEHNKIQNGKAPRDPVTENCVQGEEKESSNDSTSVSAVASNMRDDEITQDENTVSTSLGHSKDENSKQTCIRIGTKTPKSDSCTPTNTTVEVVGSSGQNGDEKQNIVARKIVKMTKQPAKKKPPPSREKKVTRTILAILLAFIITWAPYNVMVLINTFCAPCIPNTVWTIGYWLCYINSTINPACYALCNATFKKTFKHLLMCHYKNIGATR

[3] = biological target: T2, Muscarinic acetylcholine receptor M1 (Homo sapiens) (UniProt P11229); test: Affinity for Muscarinic acetylcholine receptor M1 of rabbit vas deferens.; settings: Oryctolagus cuniculus; target entry is the homologue from another species
T2 sequence (whole entry): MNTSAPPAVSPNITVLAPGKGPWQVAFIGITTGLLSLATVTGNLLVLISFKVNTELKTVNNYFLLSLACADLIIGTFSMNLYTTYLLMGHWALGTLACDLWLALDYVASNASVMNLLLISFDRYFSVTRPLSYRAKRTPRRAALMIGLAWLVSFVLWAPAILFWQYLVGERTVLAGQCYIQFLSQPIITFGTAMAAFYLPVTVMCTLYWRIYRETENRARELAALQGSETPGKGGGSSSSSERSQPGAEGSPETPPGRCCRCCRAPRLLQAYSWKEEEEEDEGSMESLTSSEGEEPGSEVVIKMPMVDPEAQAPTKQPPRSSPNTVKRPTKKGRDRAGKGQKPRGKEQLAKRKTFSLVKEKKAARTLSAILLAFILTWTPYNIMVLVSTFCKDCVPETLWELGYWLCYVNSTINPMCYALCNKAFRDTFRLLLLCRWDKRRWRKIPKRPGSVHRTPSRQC

Chain of Muscarinic acetylcholine receptor M3 (Cavia porcellus) (Q8VH26 1-587): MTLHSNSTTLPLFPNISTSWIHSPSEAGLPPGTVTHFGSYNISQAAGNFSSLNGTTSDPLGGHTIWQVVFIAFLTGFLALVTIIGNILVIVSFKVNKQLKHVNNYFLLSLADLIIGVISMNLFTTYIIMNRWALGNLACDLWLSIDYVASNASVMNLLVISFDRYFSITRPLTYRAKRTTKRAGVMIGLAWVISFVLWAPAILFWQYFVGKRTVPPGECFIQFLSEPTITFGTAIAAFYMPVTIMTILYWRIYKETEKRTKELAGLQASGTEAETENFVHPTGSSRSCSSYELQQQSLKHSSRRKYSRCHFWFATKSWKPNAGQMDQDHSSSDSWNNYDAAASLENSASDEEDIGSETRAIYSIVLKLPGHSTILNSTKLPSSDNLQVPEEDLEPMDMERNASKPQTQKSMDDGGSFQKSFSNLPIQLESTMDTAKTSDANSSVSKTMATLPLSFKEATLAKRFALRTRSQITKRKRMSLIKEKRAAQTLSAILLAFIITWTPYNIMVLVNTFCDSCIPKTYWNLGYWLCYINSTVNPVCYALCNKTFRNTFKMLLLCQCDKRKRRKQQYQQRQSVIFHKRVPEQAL

pKb [1] | pKb [2] | pKb [3] | Structure (SMILES)
7.45 | 7.47 | 6.83 | C[C@H]([C@@H]1COC(c2ccccc2)(c2ccccc2)O1)N(C)C
6.41 | 6.41 | 6.52 | C[C@H](C1COC(c2ccccc2)(c2ccccc2)O1)N(C)C (some centres undefined)
7.94 | 8.03 | 8.11 | CC(C1COC(c2ccccc2)(c2ccccc2)O1)N(C)C (racemic; form 2)
6.96 | 7.2 | 6.95 | CC(C1COC(c2ccccc2)(c2ccccc2)O1)N(C)C (racemic; form 1)
7.92 | 8.07 | 7.82 | CC(C1COC(c2ccccc2)(c2ccccc2)O1)[N+](C)(C)C (racemic; form 2)
8.92 | 8.39 | 8.46 | C[C@@H]([C@H]1COC(c2ccccc2)(c2ccccc2)O1)N(C)C
7.51 | 7.53 | 8.24 | C[C@H](C1COC(c2ccccc2)(c2ccccc2)O1)[N+](C)(C)C (some centres undefined)
8.3 | 8.22 | 8.01 | CC(C1COC(c2ccccc2)(c2ccccc2)O1)[N+](C)(C)C (racemic; form 1)
6.72 | 7.11 | 7.15 | CN(C)CC1COC(c2ccccc2)(c2ccccc2)O1 (centres undefined)
7.85 | 7.82 | 7.47 | C[C@@H]([C@H]1COC(c2ccccc2)(c2ccccc2)O1)[N+](C)(C)C
8 | 8.21 | 7.12 | C[C@@H](C1COC(c2ccccc2)(c2ccccc2)O1)[N+](C)(C)C (some centres undefined)
8.4 | 8.38 | 8.23 | C[C@H]([C@@H]1COC(c2ccccc2)(c2ccccc2)O1)[N+](C)(C)C
7.19 | 7.35 | 6.94 | C[C@@H](C1COC(c2ccccc2)(c2ccccc2)O1)N(C)C (some centres undefined)
